# From patent US5204328A, “Peptides having atrial natriuretic factor activity” (Merck & Co., Inc., priority 1991, dated 1993)
# Where a SMILES comes first, the peptide text is derived from it. Bridges are numbered along the chain shown (N, C = ends).
# System: Rabbit Renal Artery
# Test: Vasorelaxant relative potency, rabbit renal artery
# Type: cell-based
Structure (SMILES),"Vasorelaxant Relative Potency Rabbit Renal Artery (Table 1, (3-28) analogs, relative to sequence I = 1)","Vasorelaxant Relative Potency Rabbit Renal Artery (Table 2, (7-27)-NH2 analogs, relative to I (7-27)-NH2 = 1)"
"CC[C@H](C)[C@@H]1NC(=O)[C@H](CCCNC(=N)N)NC(=O)[C@H](CC(=O)O)NC(=O)[C@H]([C@@H](C)CC)NC(=O)[C@H](CCCNC(=N)N)NC(=O)CNC(=O)CNC(=O)[C@H](Cc2ccccc2)NC(=O)[C@@H](N)CSSC[C@@H](C(=O)N[C@@H](CC(N)=O)C(=O)N[C@@H](CO)C(=O)N2CCC[C@H]2C(=O)N[C@@H](CCCNC(=N)N)C(N)=O)NC(=O)CNC(=O)[C@H](CC(C)C)NC(=O)CNC(=O)[C@H](CO)NC(=O)[C@H](CCC(N)=O)NC(=O)[C@H](C)NC(=O)CNC1=O [Structure 23, PROLINE-26 ANF (7-27) amide] (H-CFGGRIDRIGAQSGLGCNSPR-NH2; disulfide 1-17)",3.3,
CC[C@H](C)[C@@H]1NC(=O)[C@H](CCCNC(=N)N)NC(=O)[C@H](CC(=O)O)NC(=O)[C@H]([C@@H](C)CC)NC(=O)[C@H](CCCNC(=N)N)NC(=O)CNC(=O)CNC(=O)[C@H](Cc2ccccc2)NC(=O)[C@@H](N)CSSC[C@@H](C(=O)N[C@@H](CC(N)=O)C(=O)N[C@@H](CO)C(=O)N2CCC[C@H]2C(=O)N[C@@H](CCCNC(=N)N)C(N)=O)NC(=O)CNC(=O)[C@H](CC(C)C)NC(=O)CNC(=O)[C@H](CO)NC(=O)[C@H](CCC(N)=O)NC(=O)[C@H](C)NC(=O)CNC1=O [Structure 23] (H-CFGGRIDRIGAQSGLGCNSPR-NH2; disulfide 1-17),,3.86
